From patent US20050059610A1 (priority 2003, published 2005)
Entries after “also recorded” stand apart in the source; their conditions may differ. Read-outs that look alike come from different tables or passages of the source.

Columns and labels:
sepsis (CLP) = assay: CLP with or without quercetin (HSP 70 inhibitor): survival, lung HSP/NOS, metabolism, TNF; type: in vivo, Sprague-Dawley rats
Protocol: Methods: Male Sprague-Dawley rats were divided into 5 groups. Two groups were treated with 400 mg/kg of quercetin (Q) IP (HSP 70 inhibitor) 6 hours pre-CLP. […] The final group (CONT, n=6) received no treatment. Five-day survival was monitored. In separate studies, lung was harvested 24-hours post-CLP and tissue metabolism analyzed by 31P- and 1H-MRS. A final study analyzed blood for TNF- at 6 hours post-CLP and lung tissue 6 hours post-CLP for HSP-70, iNOS, eNOS, and activated heat shock factor-1 (HSF-1).

heatstroke = assay: Experimental heatstroke in the rat, oral GLN; type: in vivo, Sprague-Dawley Rats
Protocol: Heatstroke was performed in anesthetized rats (ketamine/xylazine) by heating animals to 42 deg C. (rectal temperature) for 30 minutes. Survival was analyzed for five days post-heatstroke. In a separate set of animals, HSP 70 and Heat Shock Factor-1 activation (HSF-1) were analyzed at 1-hour and 24-hours post-heatstroke in heart and lung tissue via western blot (n=10/group). Statistical analysis was performed via Fischer's Exact Test for survival and ANOVA with Duncan grouping as post-hoc test for HSP-70 and HSF-1 expression.

[1] = test system: intestinal epithelial cells; assay: Protection of cells against heat and oxidant stress; type: cell-based
Text: This was proven when blockade of HSP 70 expression via quercetin (inhibits HSF-1 binding) and via direct antisense inhibition of the HSP-70 gene (FIG. 12).

critically ill humans = conditions: cited from earlier work; for tolerability of the maximum dose previously administered in humans: even in critically ill patients
[2] = test system: polymicrobial sepsis (2CLP); assay: Cecal-ligation and double-puncture (2CLP) sepsis: survival, cytokines, lung HSP 72; type: in vivo, Sprague-Dawley rats
Text: Further, increased Interleukin-18 (IL-18) levels appear to play a critical role in cytokine-induced organ failure and can be predictive of mortality in sepsis patients.
Increased Interleukin-18 (IL-18) levels appear to play a critical role in cytokine-induced organ failure and can be predictive of mortality in sepsis patients.

[3] = test system: myocardial ischemia/reperfusion injury
[4] = test system: myocardial tissue metabolism; assay: Rat working heart model, myocardial tissue metabolism by 1H-/31P-MRS; type: in vivo
Protocol: The tissue was analyzed for ATP, ADP, and ATP/ADP ratio via ^31P-magnetic resonance spectroscopy (MRS) and for creatine/phosphocreatine content via ^1H-magnetic resonance spectroscopy (MRS). […] The tissue was analyzed for lactate content via ^1H-MRS. […] Glutamine pretreatment enhances myocardial tissue content (glutamine, glutamate, and glucose) content following myocardial I/R injury in the rat. […] Glutamate is a vital tissue substrate following myocardial injury and it is beneficial that a single dose of […]/R injury can preserve tissue levels of this key substrate following injury. […] This key finding confirms that it is possible to enhance myocardial tissue substrate content (particularly glutamate) with a (pre-operative) remote GLN pre-treatment dose. […] Substrates were analyzed via ^1H-MRS. […] The tissue was analyzed for myocardial tissue reduced glutathione content via ^1H-magnetic resonance spectroscopy (MRS). […] Glutamine pretreatment preserves myocardial NAD (+)/NADH content following myocardial I/R injury in the rat. […] The tissue was analyzed for NAD (+)/NADH content via ^31P-magnetic resonance spectroscopy (MRS). […] NAD(+)/NADH was analyzed via […]. (**-p<0.01 versus pre-ischemic values, ##-p<0.01 versus post-ischemic LR control tissue via ANOVA.)

serum HSP 70 = assay: Serum HSP-70 levels in critically ill patients (surgical ICU), GLN vs control; type: in vivo, human; conditions: for Baseline HSP-70 / LN(Baseline HSP-70): before treatment
[5] = test system: polymicrobial sepsis (CLP); assay: Cecal ligation and puncture (CLP): lung and heart tissue metabolism by MRS, survival; type: in vivo, Sprague-Dawley rats
Protocol: Survival was monitored for five days. In a separate group of animals (n=4/group), lung and heart tissue was harvested 24 hours post-CLP and tissue metabolism was analyzed by ^1H-MRS and ^31P-MRS.

[6] = test system: polymicrobial sepsis and peritonitis (CLP); assay: CLP peritonitis/polymicrobial sepsis, GLN 30 minutes after induction, with or without quercetin; type: in vivo, rat
Text: Cecal ligation and puncture (CLP) in the rat was chosen as the appropriate model.

cardiomyocytes = assay: Ischemia/reperfusion injury of isolated cardiomyocytes; type: cell-based
Protocol: Spontaneously contracting cardiomyocytes were studied.
Cardiomyocytes were allowed to equilibrate at baseline normoxic conditions for 60 minutes.

[7] = test system: onset of ischemia (1 mm of ST depression); assay: Exercise stress test in patients with chronic stable angina, crossover trial; type: in vivo, human; conditions: oral GLN 80 mg/kg 40 minutes prior to exercise stress test; 17 patients; vs placebo
Text: Patients were then crossed over following a one-week interval.

[8] = GLN 0.75 g/kg IV one-hour post-CLP, 6 hours post-CLP
[9] = five days of oral GLN prior to heatstroke
[10] = non-pancreatic diagnoses, n = 7
[11] = GLN 30 minutes after induction of peritonitis and sepsis

NC(=O)CC[C@H](N)C(=O)O [GLN, Glutamine]
lung NAD+ (sepsis (CLP); 24-hours post-CLP, MRS): improved | lung lactate accumulation (sepsis (CLP); 24-hours post-CLP, MRS): attenuated | lung eNOS (sepsis (CLP); 6 hours post-CLP): enhanced | lung iNOS (sepsis (CLP); 6 hours post-CLP): attenuated | plasma TNF- expression (sepsis (CLP); 6 hours post-CLP): attenuated | 5-day survival (sepsis (CLP); GLN 0.75 g/kg IV one-hour post-CLP): significant improvement | lung HSF-1 activation (sepsis (CLP); [8]): enhanced | lung HSP70 expression (sepsis (CLP); [8]): enhanced | HSF-1 activation (heatstroke; 1-hour and 24-hours post-heatstroke): No change | HSP 70 expression in heart and lung tissue (heatstroke; 1 hour post-heatstroke, versus unheated animals and heated controls): significantly enhanced | HSP 70 between GLN and control animals (heatstroke; 24 hours post-heatstroke): no significant difference | mortality following heatstroke (heatstroke; GLN 0.65 g/kg gavage twice a day for five days, 42 deg C. for 30 minutes, control 62.5%): 12.5% | HSP 70 expression in heart, lung, and colon tissue (heatstroke; [9]): enhanced | mortality from lethal heatstroke (in words) (heatstroke; [9]): significantly reduced | protection of cells against heat and oxidant stress [1]: protection | tolerability of the maximum dose previously administered in humans (critically ill humans): without adverse side effects | tolerability of the maximum dose previously administered in humans (critically ill humans; listed as L-Glutamine): tolerated well without adverse side effects | toxicity in critically ill humans (critically ill humans; variety of clinical settings): without any evidence of toxicity | expression of IL-18 ([2]; 12, 18, and 24 hours post-2CLP): significantly attenuated | expression of IL-6 ([2]; 6 hours post-2CLP): attenuated | expression of TNF-α ([2]; 6 hours post-2CLP): attenuated | lung HSP 72 expression versus control ([2]; following 2CLP): enhanced | 5-day mortality rate following 2CLP ([2]; single dose GLN 0.75 g/Kg one hour following surgery, control 78%): 42% | recovery of cardiac flow following reperfusion ([3]; 0.75 g/kg alanine-glutamine (0.52 g/kg glutamine) IP 18 hours prior, pre-load 8 and 12 mmHg): significantly improved | percent recovery of coronary flow ([3]; 60 minutes following reperfusion, 0.52 g/kg GLN 18 hours prior): significantly enhanced | post-I/R cardiac output ([3]; single dose 18 hours prior to 15 minutes of no flow ischemia): significant improvement | total ATP content following I/R injury ([4]; 0.52 g/kg GLN 18 hours prior, vs control): improved | accumulation of myocardial lactate following I/R injury ([4]; GLN 18 hours prior): significant decrease; also recorded: decreased | myocardial tissue content of glutamine and glucose following I/R injury versus LR control ([4]; GLN 18 hours prior, 1H-MRS): enhanced | myocardial tissue creatine/phosphocreatine content following I/R injury ([4]; GLN 18 hours prior, 1H-MRS): enhanced | myocardial tissue reduced glutathione content following I/R injury ([4]; GLN 18 hours prior, 1H-MRS): marked enhancement; also recorded: improved | post-ischemic glutamate levels versus pre-ischemic levels ([4]; GLN 18 hours prior, 1H-MRS): no decrease | myocardial NAD(+)/NADH content following I/R injury ([4]; GLN 18 hours prior, MRS): significant preservation; also recorded: improved | reduction of the increase in tissue lactate versus control animals ([4]; GLN 18 hours prior, post I/R, 1H-MRS): > 55% | HSP-70 levels at 1-week, higher than control patients by (serum HSP 70; 95% CI −0.01 to 5.64, p=0.050): 2.82 units | change in HSP-70 levels from baseline to 1-week, greater than control patients by (serum HSP 70; 95% CI −0.09 to 5.29, p=0.057): 2.60 units | 1-week HSP-70 (serum HSP 70; all diagnoses, n = 15): 4.09 ± 4.70 | HSP-70 change from baseline (serum HSP 70; all diagnoses, n = 15): 3.48 ± 4.53 | LN(1-week HSP-70) (serum HSP 70; all diagnoses, n = 15): 0.56 ± 1.63 | LN(1-wk HSP/Baseline HSP) (serum HSP 70; all diagnoses, n = 15): 1.93 ± 1.23 | Baseline HSP-70 (serum HSP 70; all diagnoses, n = 15): 0.61 ± 1.05 | LN(Baseline HSP-70) (serum HSP 70; all diagnoses, n = 15): −1.37 ± 1.26 | enhancement of serum HSP levels versus iso-nitrogenous control solution (serum HSP 70; intravenous GLN, mixed critically ill patients, surgical ICU): four-fold enhancement | 1-week HSP-70 (serum HSP 70; [10]): 3.43 ± 5.17 | HSP-70 change from baseline (serum HSP 70; [10]): 2.60 ± 4.77 | LN(1-week HSP-70) (serum HSP 70; [10]): 0.20 ± 1.70 | LN(1-wk HSP/Baseline HSP) (serum HSP 70; [10]): 1.63 ± 1.21 | Baseline HSP-70 (serum HSP 70; [10]): 0.83 ± 1.48 | LN(Baseline HSP-70) (serum HSP 70; [10]): −1.43 ± 1.58 | fall in lung tissue Creatine/phosphocreatine ([5]; 24 hours post-CLP): significantly attenuated | fall in lung tissue glucose ([5]; 24 hours post-CLP): significantly attenuated | fall in lung tissue glutamine ([5]; 24 hours post-CLP): significantly attenuated | lung lactate accumulation ([5]; 24 hours post-CLP, p<0.06): trend towards a decrease | five day mortality rate post-CLP ([5]; GLN 0.75 g/Kg one hour post surgery): 78% | NAD+ content in lung and heart tissue following CLP ([5]; GLN 0.75 g/Kg one hour post surgery, 24 hours post-CLP): significant improvement | serum HSP 70 expression ([6]; CLP model, rat): markedly enhanced; also recorded: approximate four-fold increase | deficient lung HSP 70 expression [6, 11]: markedly enhanced | lung HSF-1 activation [6, 11]: markedly enhanced | NAD+/NADH levels in lung tissue ([6]; following sepsis and peritonitis): nearly doubling | survival following peritonitis and polymicrobial sepsis ([6]; rat, in vivo): significantly improve survival; also recorded: doubling of survival | HSP 72 content (western blot) vs cells not receiving GLN (cardiomyocytes; 10 mM GLN): significant increase | return of contractile function following I/R injury (cardiomyocytes; 10 mM GLN): significantly enhanced | cell death from ischemia/reperfusion (cardiomyocytes; 10 mM GLN one hour before and throughout ischemia and reperfusion, control 48%): 22% | onset of ST depression [7]: significant delay
